Assay results published in patent publication US5480905A, “Benzodioxane derivatives” (Chugai Seiyaku Kabushiki Kaisha, priority 1991, dated 1996).
Entries after “also recorded” stand apart in the source; their conditions may differ.

Legend:
serotonin 2 receptor = target: T1, serotonin 2 receptor (Rattus norvegicus, UniProt P14842); experiment: Serotonin 2 receptor binding experiment (3H-ketancerine); conditions: rat cortex and hippocampal tissue; 0.5 nM 3H-ketancerine; IC50 in M; read-out: -logIC50 5-HT2 (converted)
T1 construct: the cortex and hippocampal tissue were extracted from the brain; from tissue; host or cells: brain cortex and hippocampus of 7-week-old male S.D. rats, washed membrane homogenate
T1 sequence (P14842 whole entry): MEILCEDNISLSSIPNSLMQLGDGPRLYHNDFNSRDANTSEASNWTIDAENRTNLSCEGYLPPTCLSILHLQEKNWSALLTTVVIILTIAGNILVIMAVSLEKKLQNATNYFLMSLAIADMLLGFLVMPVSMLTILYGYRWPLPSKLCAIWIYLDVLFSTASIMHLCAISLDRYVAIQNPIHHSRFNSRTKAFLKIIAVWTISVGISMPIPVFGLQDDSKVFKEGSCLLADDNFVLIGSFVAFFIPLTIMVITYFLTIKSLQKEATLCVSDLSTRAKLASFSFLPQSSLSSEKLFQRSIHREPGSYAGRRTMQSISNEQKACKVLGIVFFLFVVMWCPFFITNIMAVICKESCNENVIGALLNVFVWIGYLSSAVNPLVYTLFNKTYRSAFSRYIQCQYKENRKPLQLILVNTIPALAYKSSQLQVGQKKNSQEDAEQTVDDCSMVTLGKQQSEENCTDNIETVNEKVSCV
Summary of the method: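 Membranes were prepared from cortex and hippocampus of 7-week male SD rats in 50 mM Tris-HCl pH 7.7 and preincubated 20 min at 37 °C to remove endogenous serotonin.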

S.D. line male rats [1] = experiment: Antidepressant effect, compelled swim test (Porsolt), time over which rats remain motionless; type: in vivo, rat; parameters: Antidepressant effect / Antidepressant effect, longevity: scale not given here; conditions: for inhibition in vivo at 20 mg/kg / ED50: Rattus norvegicus, po, 0.5 h; for inhibition in vivo at 20 mg/kg: 30 min before swim, read-out: Antidepressant effect, Efficacy; for ED50: peroral, probit method, read-out: ED50, dose reducing motionless time by one half vs control
Experimental: An antidepression test was conducted in accordance with the method of Porsolt et al. (Europ. J. Pharmacol., 47, 379-391, 1978). Stated more specifically, 7-wk old S.D. line male rats were placed in a glass cylinder (18 cm^.phi. ×40 cm^H) for 15 min. The cylinder was filled with water (25° C.) to a depth of 15 cm. Thereafter, the rats were placed in a hot environment (32° C.) for 15 min before they were returned to the cage. Twenty-four hours later, the rats were compelled again to swim in the same cylinder for 5 min and the total time over which the rats remained motionless was measured. A test drug was administered perorally to each animal 30 min before it was compelled to swim for 5 min. Antidepressant agents are known to be capable of specifically reducing the time over which the rats would remain motionless (Psyehopharmaeol., 83, 1-16, 1984, and ibid., 94, 147-160, 1988). The antidepressant effect was calculated by the following formula: [formula]
(§1) The procedure of Test Examples 2 and 3 were repeated except that test compounds were administered perorally in a dose of 10 mg/kg.
(§2) The procedures of Test Example 2 and 3 were repeated, except that test compounds were administered perorally in a dose of 20 mg/kg to check the longevity of their antianxiety and antidepressant effects for 0.5, 2 and 4 h.

S.D. line male rats [2] = experiment: Antianxiety effect, water drinking under punishment (Vogel); type: in vivo, rat; parameters: Antianxiety effect / Antianxiety effect, longevity: unit not given here; conditions: for change in vivo at 20 mg/kg: Rattus norvegicus, po, read-out: Antianxiety effect, Efficacy
Experimental: Antianxiety test was conducted in accordance with a method adapted from the method of Vogel et al. (Psychopharmacol., 21, 1-7, 1971). Stated more specifically, S.D. line male rats weighing 250-300 g were entirely kept from water for 24 h and then placed in a concrete experimental box. […] The bottom of the box was made of a stainless steel grid, from which electric shock (0.2 mA, 0.5 sec) could be applied to the limbs of rats. The test schedule was as follows: first, the rats were acclimatized to the experimental box and trained for drinking water; this was done for 3 min without electric shock. The quantity of water drunk by the rats was then measured (under non-punishment). Then, the rats were kept from drinking water for 24 h. Thereafter, the quantity of water drunk by each rat was measured (before administration of test compound) under such conditions that an electric shock was applied each time a rat drank one water drop (under punishment).Thirty minutes later, a test drug was administered perorally and after an additional 20 min, the quantity of water drunk by each rat was again measured under punishment (after administration of test compound). The quantity of water drunk by rats will decrease under punishment but it is known that the initial level can be restored by administering an antianxiety agent.
The antianxiety effect of a test compound was calculated by the following formula: [formula]
as §1, §2

S.D. line male rats [3] = experiment: Sedative action, amount of spontaneous movement (Animex); type: in vivo, rat; conditions: for Amount of Spontaneous Movement: control 405.2 ± 47.7; for Sedative action / spontaneous movement: peroral 20-60 mg/kg
Experimental: Seven-week old male S.D. line rats were administered a test drug perorally and after the passage of 30 min, the amount of spontaneous movement of the rats was measured for 10 min by means of Animex.

[4] = tested on: apomorphine induced stereotypic behavior; experiment: Antidopamine action, apomorphine induced stereotypic behavior; type: in vivo, rat; conditions: for Apomorphine Induced Stereotypic Behavior, sum of scores: maximum of 24; for Antidopamine action: peroral, apomorphine 0.5 mg/kg s.c.
Experimental: Seven-week old male S.D. line rats were administered a test drug perorally and after the passage of 30 min, the dopamine agonist apomorphine was injected subcutaneously in an amount of 0.5 mg/kg. For the subsequent 5-30 min period, the intensity of stereotypic behavior that was induced in the rats by apomorphine was measured six times at 5-min intervals by a scoring method and the sum of the scores was determined (for a maximum of 24).

[5] = peroral 20 mg/kg, 0.5 h after administration
[6] = peroral 20 mg/kg, 2.0 h after administration
[7] = peroral 20 mg/kg, 4.0 h after administration
[8] = 20 mg/kg peroral, control 14.4 ± 0.9 (Comp. 1: 16.0 ± 1.1)

Row | Structure (SMILES) | IC50 (serotonin 2 receptor) | inhibition in vivo at 20 mg/kg (S.D. line male rats [1]; peroral 20 mg/kg) | ED50 (S.D. line male rats [1]) | Antidepressant effect, longevity (S.D. line male rats [1]; [5]) | Antidepressant effect, longevity (S.D. line male rats [1]; [6]) | Antidepressant effect, longevity (S.D. line male rats [1]; [7]) | change in vivo at 20 mg/kg (S.D. line male rats [2]; peroral 20 mg/kg) | Antianxiety effect, longevity (S.D. line male rats [2]; [5]) | Antianxiety effect, longevity (S.D. line male rats [2]; [6]) | Antianxiety effect, longevity (S.D. line male rats [2]; [7]) | Amount of Spontaneous Movement (S.D. line male rats [3]; 20 mg/kg peroral) | Amount of Spontaneous Movement (S.D. line male rats [3]; 40 mg/kg peroral) | Amount of Spontaneous Movement (S.D. line male rats [3]; 60 mg/kg peroral) | Sedative action / spontaneous movement (S.D. line male rats [3]) | Apomorphine Induced Stereotypic Behavior, sum of scores [4, 8] | Antidopamine action [4] | further results
1 | Cc1cccc2c1OC(CNCCNC(=O)C13CC4CC(CC(C4)C1)C3)CO2 (stereo not shown) [Compound 1, N-{[2-(8-methyl-1,4-benzodioxan-2-ylmethyl)amino]ethyl}tricyclo[3,3,1,1^3, ^7]decane-1-carboxyamide] | 0.0302 µM | 72 ± 5.5% | 8.1 mg/kg | 71.8 | 73.9 | 40.7 | 85.4 ± 10.3% | 52.8 | 48.2 | 29.5 | 442.0 Counts/10 min | 401.8 Counts/10 min | 319.4 Counts/10 min | no appreciable sedative action | 14.7 | no effect at all when it was used in a dose of 20 mg/kg; also recorded: no antidopamine action | Antidepressant effect (S.D. line male rats [1]; peroral 10 mg/kg): 66.7 ± 12.6; Antidepressant effect (S.D. line male rats [1]; peroral 20 mg/kg): better antidepressant effects than WY-50324; Antidepressant activity relative to WY-50324 (ED50) (S.D. line male rats [1]; ratio of ED50): three times the activity of WY-50324; Antianxiety effect (S.D. line male rats [2]; peroral 10 mg/kg): 42.4 ± 2.1; Antianxiety and antidepressant effects (S.D. line male rats [2]; peroral 10 mg/kg, Table 6): superiority; Antianxiety effect (S.D. line male rats [2]; peroral 20 mg/kg): better effects than MDL-73005
2 | O=C(NCCN1CCN(c2ncccn2)CC1)C12CC3CC(CC(C3)C1)C2 [WY-50324, reference compound] | 0.2 µM | 58.1 ± 5% | 24.3 mg/kg | 56.7 | 17.3 | 0.7 | 46.9 ± 6.3% | 57.8 | 24.8 | 11.2 | 315.5 Counts/10 min | 361.9 Counts/10 min | 401.6 Counts/10 min | no appreciable sedative action | 12.1 | showed an inhibitory action in high doses | Apomorphine Induced Stereotypic Behavior, sum of scores ([4]; 10 mg/kg peroral, control 14.4 ± 0.9): 14.7; Apomorphine Induced Stereotypic Behavior, sum of scores ([4]; 40 mg/kg peroral, control 14.4 ± 0.9): 10.9
